# Values joined by “and” are separate entries in the source; they are usually repeats but may differ in a detail not shown here. Equal entries are not always repeated.
# Tested on: panel of 484 cancer cell lines
# Assay: PRISM cancer cell line profiling, 5 days
# Format: cell-based
# Parameters: Viability: scale not given here; AUC: unit not given beside the values
# Experimental: Cancer cell line profiling was performed using the Broad’s PRISM platform. Cell treatment and data analysis were performed as described in Yu et al[42]. Raw Luminex signal was converted to AUC values for each cell line as described. The resulting AUC profile for each compound was modeled against DepMap using the limma package in R[71]. Because hotspot mutation analysis was performed against DepMap, TP53 annotations in Fig. 6c,d are directly from DepMap.
# [1] = GCIY_STOMACH, pert_dose 6.10E-04
# [2] = GCT_SOFT_TISSUE, pert_dose 6.10E-04
# [3] = GI1_CENTRAL_NERVOUS_SYSTEM, pert_dose 6.10E-04
# [4] = GMS10_CENTRAL_NERVOUS_SYSTEM, pert_dose 6.10E-04
# [5] = GOS3_CENTRAL_NERVOUS_SYSTEM, pert_dose 6.10E-04
# [6] = HCC56_LARGE_INTESTINE, pert_dose 6.10E-04
# [7] = HCC366_LUNG, pert_dose 6.10E-04
# [8] = HCC1143_BREAST, pert_dose 6.10E-04
# [9] = HCC1195_LUNG, pert_dose 6.10E-04
# [10] = HCC1359_LUNG, pert_dose 6.10E-04
# [11] = HCC1419_BREAST, pert_dose 6.10E-04
# [12] = HCC1428_BREAST, pert_dose 6.10E-04
# [13] = HCC1438_LUNG, pert_dose 6.10E-04
# [14] = HCC1806_BREAST, pert_dose 6.10E-04
# [15] = HCC4006_LUNG, pert_dose 6.10E-04
# [16] = HCT15_LARGE_INTESTINE, pert_dose 6.10E-04
# [17] = HCT116_LARGE_INTESTINE, pert_dose 6.10E-04
# [18] = HDQP1_BREAST, pert_dose 6.10E-04
smiles,measurement,setting,value
COc1ccc(C2=N[C@@H](c3ccc(Cl)cc3)[C@@H](c3ccc(Cl)cc3)N2C(=O)N2CCNC(=O)C2)c(OC(C)C)c1 [Nutlin-3A],AUC,FTC238_THYROID,1.264
same,MFI FTC238_THYROID,"FTC238_THYROID, pert_dose 6.10E-04",2880 and 3372 and 2980.5 and 2950.5 and 4003.5
same,AUC,G292CLONEA141B1_BONE,1.148
same,AUC,G361_SKIN,1.031
same,MFI G361_SKIN,"G361_SKIN, pert_dose 6.10E-04",10064 and 9507.5 and 5703 and 7102 and 9477
same,AUC,G401_SOFT_TISSUE,0.8138
same,AUC,G402_SOFT_TISSUE,0.8312
same,MFI G402_SOFT_TISSUE,"G402_SOFT_TISSUE, pert_dose 6.10E-04",8566 and 7883 and 9123.5 and 10028.5 and 7843.5
same,AUC,GAMG_CENTRAL_NERVOUS_SYSTEM,1.104
same,AUC,GB1_CENTRAL_NERVOUS_SYSTEM,1.08
same,MFI GB1_CENTRAL_NERVOUS_SYSTEM,"GB1_CENTRAL_NERVOUS_SYSTEM, pert_dose 6.10E-04",8797 and 10917.5 and 10369 and 11626 and 6173
same,AUC,GCIY_STOMACH,1.0178
same,MFI GCIY_STOMACH,[1],10513.5 and 10287.5 and 8158.5 and 7393 and 6559.5
same,Viability,[1],1.05
same,AUC,GCT_SOFT_TISSUE,1.1243
same,MFI GCT_SOFT_TISSUE,[2],30402 and 32248 and 27974 and 25401 and 26115.5
same,Viability,[2],1.1
same,AUC,GI1_CENTRAL_NERVOUS_SYSTEM,1.1989
same,MFI GI1_CENTRAL_NERVOUS_SYSTEM,[3],7007.5 and 7677 and 5613.5 and 9782 and 8476.5
same,Viability,[3],1.209
same,AUC,GMS10_CENTRAL_NERVOUS_SYSTEM,1.196
same,MFI GMS10_CENTRAL_NERVOUS_SYSTEM,[4],2195 and 3287.5 and 2615 and 2263.5 and 2230
same,Viability,[4],0.8757
same,AUC,GOS3_CENTRAL_NERVOUS_SYSTEM,0.8893
same,MFI GOS3_CENTRAL_NERVOUS_SYSTEM,[5],16506.5 and 12732.5 and 12479 and 15312 and 16884
same,Viability,[5],1.256
same,AUC,GP2D_LARGE_INTESTINE,0.8664
same,AUC,H4_CENTRAL_NERVOUS_SYSTEM,0.8741
same,AUC,HARA_LUNG,1.148
same,MFI HARA_LUNG,"HARA_LUNG, pert_dose 6.10E-04",10420 and 10731 and 9850 and 12219 and 8432
same,Viability,"HARA_LUNG, pert_dose 6.10E-04",1.156
same,AUC,HCC15_LUNG,1.083
same,MFI HCC15_LUNG,"HCC15_LUNG, pert_dose 6.10E-04",10708.5 and 9658 and 9646.5 and 7600 and 8929.5
same,AUC,HCC38_BREAST,1.13
same,AUC,HCC44_LUNG,1.143
same,MFI HCC44_LUNG,"HCC44_LUNG, pert_dose 6.10E-04",8858.5 and 14957 and 12427 and 9895 and 9714
same,Viability,"HCC44_LUNG, pert_dose 6.10E-04",0.9479
same,AUC,HCC56_LARGE_INTESTINE,1.116
same,MFI HCC56_LARGE_INTESTINE,[6],22390 and 19383.5 and 18019.5 and 16274 and 12370
same,Viability,[6],1.19
same,AUC,HCC78_LUNG,1.129
same,MFI HCC78_LUNG,"HCC78_LUNG, pert_dose 6.10E-04",13938.5 and 17123.5 and 16093 and 13546.5 and 12989
same,Viability,"HCC78_LUNG, pert_dose 6.10E-04",1.137
same,AUC,HCC95_LUNG,1.133
same,MFI HCC95_LUNG,"HCC95_LUNG, pert_dose 6.10E-04",19085 and 17009 and 14223 and 15820 and 14624.5
same,Viability,"HCC95_LUNG, pert_dose 6.10E-04",1.3736
same,AUC,HCC366_LUNG,1.1015
same,MFI HCC366_LUNG,[7],3176 and 4976 and 3338 and 4080 and 5551.5
same,Viability,[7],0.8601
same,AUC,HCC827_LUNG,1.216
same,AUC,HCC1143_BREAST,1.173
same,MFI HCC1143_BREAST,[8],10292 and 10056.5 and 12994 and 8725 and 11412
same,Viability,[8],1.09
same,AUC,HCC1195_LUNG,0.9896
same,MFI HCC1195_LUNG,[9],3248 and 2450 and 2557 and 3311 and 2339
same,Viability,[9],0.8066
same,AUC,HCC1359_LUNG,1.205
same,MFI HCC1359_LUNG,[10],3254.5 and 3202.5 and 4282 and 3759 and 4252
same,Viability,[10],1.0552
same,AUC,HCC1419_BREAST,1.157
same,MFI HCC1419_BREAST,[11],4554 and 3766 and 6250 and 4022 and 3342
same,Viability,[11],1.3281
same,AUC,HCC1428_BREAST,1.0418
same,MFI HCC1428_BREAST,[12],5601.5 and 4304.5 and 6512 and 4295 and 6602.5
same,Viability,[12],0.9769
same,AUC,HCC1438_LUNG,1.064
same,MFI HCC1438_LUNG,[13],3705.5 and 4037.5 and 3791 and 2958 and 2338
same,Viability,[13],1.029
same,AUC,HCC1588_LUNG,0.8674
same,MFI HCC1588_LUNG,"HCC1588_LUNG, pert_dose 6.10E-04",12748 and 13169 and 10479 and 16252.5 and 12413.5
same,AUC,HCC1806_BREAST,1.223
same,MFI HCC1806_BREAST,[14],4998.5 and 5222.5 and 6609 and 6768 and 3833.5
same,Viability,[14],1.444
same,AUC,HCC1937_BREAST,1.259
same,Viability,"HCC1937_BREAST, pert_dose 6.10E-04",0.8468
same,AUC,HCC4006_LUNG,1.075
same,MFI HCC4006_LUNG,[15],13511 and 17514.5 and 15021 and 17956 and 15891.5
same,Viability,[15],1.081
same,AUC,HCT15_LARGE_INTESTINE,1.231
same,MFI HCT15_LARGE_INTESTINE,[16],19712 and 17910 and 19958 and 21240.5 and 15477
same,Viability,[16],1.456
same,AUC,HCT116_LARGE_INTESTINE,0.9703
same,MFI HCT116_LARGE_INTESTINE,[17],29799 and 33721.5 and 25531.5 and 28789.5 and 30554.5
same,Viability,[17],1.204
same,AUC,HDQP1_BREAST,1.144
same,MFI HDQP1_BREAST,[18],7912.5 and 7534 and 9203 and 8805.5 and 8820
same,Viability,[18],1.159
same,AUC,HEC1A_ENDOMETRIUM,0.9522
same,AUC,HEC1B_ENDOMETRIUM,1.073
same,Viability,"HEC1B_ENDOMETRIUM, pert_dose 6.10E-04",0.9409
same,AUC,HEC6_ENDOMETRIUM,1.185

# From publication PMC7093416, “Selective USP7 inhibition elicits cancer cell killing through a p53-dependent mechanism” (Scientific Reports, 2020)
